Values joined by “and” are separate entries in the source; they are usually repeats but may differ in a detail not shown here. Equal values may be shown once. Inconclusive results and toxic doses are left out. Peptide text beside a SMILES is read from it. * marks the point of attachment. Cbz = O=C(OCc1ccccc1)*
Test system: P388 leukemia ip, CD2F1 mice, survival T/C
Test: NCI In Vivo Anticancer Drug Screen. Data for tumor model P388 Leukemia (intraperitoneal) in CD2F1 (CDF1) mice
Conditions: endpoint: median survival time, higher = longer survival
Outline: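 Mice carrying the transplanted tumor received test compound or vehicle. Survival was recorded in each group, and the value is the treated-group measurement divided by that of the vehicle-treated control group.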

[1] = dose: 50.0 mg/kg/injection, schedule: Q01DX005 (ip), vehicle: saline with Tween-80
[2] = dose: 100.0 mg/kg/injection, schedule: Q01DX005 (ip), vehicle: saline with Tween-80
[3] = dose: 200.0 mg/kg/injection, schedule: Q01DX005 (ip), vehicle: saline with Tween-80
[4] = dose: 50.0 mg/kg/injection, schedule: Q01DX009 (ip), vehicle: saline with Tween-80
[5] = dose: 100.0 mg/kg/injection, schedule: Q01DX009 (ip), vehicle: saline with Tween-80
[6] = dose: 200.0 mg/kg/injection, schedule: Q01DX009 (ip), vehicle: saline with Tween-80
[7] = dose: 50.0 mg/kg/injection, schedule: Q01DX009 (ip), vehicle: saline
[8] = dose: 100.0 mg/kg/injection, schedule: Q01DX009 (ip), vehicle: saline
[9] = dose: 60.0 mg/kg/injection, schedule: Q01DX005 (ip), vehicle: saline with Tween-80
[10] = dose: 120.0 mg/kg/injection, schedule: Q01DX005 (ip), vehicle: saline with Tween-80
[11] = dose: 240.0 mg/kg/injection, schedule: Q01DX005 (ip), vehicle: saline with Tween-80
[12] = dose: 50.0 mg/kg/injection, schedule: Q01DX005 (ip), vehicle: Klucel (hydroxypropylcellulose) (HPC)
[13] = dose: 100.0 mg/kg/injection, schedule: Q01DX005 (ip), vehicle: Klucel (hydroxypropylcellulose) (HPC)
[14] = dose: 200.0 mg/kg/injection, schedule: Q01DX005 (ip), vehicle: Klucel (hydroxypropylcellulose) (HPC)
[15] = dose: 25.0 mg/kg/injection, schedule: Q01DX009 (ip), vehicle: saline with Tween-80

Compound: C/C=C1\CN2CCC34c5ccccc5N5C(C6C7CC8N(CCC89c8ccccc8N(C(C)=O)C69)C/C7=C\C)OCC(C1CC23)C54 (configuration not stated)
- T/C (dose: 12.06 mg/kg/injection, schedule: Q01DX009 (ip), vehicle: saline with Tween-80): 100 % of control
- T/C (dose: 24.12 mg/kg/injection, schedule: Q01DX009 (ip), vehicle: saline with Tween-80): 107 % of control
- T/C (dose: 48.25 mg/kg/injection, schedule: Q01DX009 (ip), vehicle: saline with Tween-80): 109 % of control

Compound: Cc1ccc2c(c1)CCCc1c-2nn(-c2ccccc2)c1-c1ccc(Cl)cc1
- T/C [1]: 86 % of control
- T/C [2]: 92 % of control
- T/C [3]: 90 % of control

Compound: O=C1CC2(O)CSc3nc(=O)cc(n32)N1 (configuration not stated)
- T/C (dose: 50.0 mg/kg/injection, schedule: Q01DX005 (ip), vehicle: saline): 107 % of control
- T/C (dose: 100.0 mg/kg/injection, schedule: Q01DX005 (ip), vehicle: saline): 106 % of control
- T/C (dose: 200.0 mg/kg/injection, schedule: Q01DX005 (ip), vehicle: saline): 94 % of control

Compound: COc1cccc(OC)c1C(c1c(OC)cccc1OC)c1c(OC)cccc1OC
- T/C (dose: 22.0 mg/kg/injection, schedule: Q04DX003 (ip), vehicle: saline with Tween-80): 109 % of control
- T/C (dose: 33.0 mg/kg/injection, schedule: Q04DX003 (ip), vehicle: saline with Tween-80): 113 % of control
- T/C (dose: 75.0 mg/kg/injection, schedule: Q04DX003 (ip), vehicle: saline with Tween-80): 109 % of control

Compound: COc1c2c(cc3oc(=O)ccc13)OC(C)(C)C=C2
- T/C (dose: 12.0 mg/kg/injection, schedule: Q01DX005 (ip), vehicle: saline with Tween-80): 107 % of control
- T/C (dose: 24.0 mg/kg/injection, schedule: Q01DX005 (ip), vehicle: saline with Tween-80): 98 % of control
- T/C (dose: 48.0 mg/kg/injection, schedule: Q01DX005 (ip), vehicle: saline with Tween-80): 105 % of control
- T/C (dose: 96.0 mg/kg/injection, schedule: Q01DX005 (ip), vehicle: saline with Tween-80): 100 % of control

Compound: O=C(NC1CCOC1=O)c1ccc(N=C=S)cc1 (configuration not stated)
- T/C (dose: 25.0 mg/kg/injection, schedule: Q04DX003 (ip), vehicle: Klucel (hydroxypropylcellulose) (HPC)): 104 % of control
- T/C (dose: 50.0 mg/kg/injection, schedule: Q04DX003 (ip), vehicle: Klucel (hydroxypropylcellulose) (HPC)): 107 % of control
- T/C (dose: 100.0 mg/kg/injection, schedule: Q04DX003 (ip), vehicle: Klucel (hydroxypropylcellulose) (HPC)): 101 % of control and 106 % of control

Compound: O=C(N/N=C/c1ccccc1O)C(=O)NC1CC1
- T/C [4]: 92 % of control
- T/C [5]: 91 % of control
- T/C [6]: 91 % of control

Compound: O=C(OCC1OC(n2ccc(=S)[nH]c2=O)C(OC(=O)c2ccccc2)C1OC(=O)c1ccccc1)c1ccccc1 (configuration not stated)
- T/C (dose: 12.5 mg/kg/injection, schedule: Q01DX005 (ip), vehicle: saline with Tween-80): 102 % of control
- T/C (dose: 25.0 mg/kg/injection, schedule: Q01DX005 (ip), vehicle: saline with Tween-80): 91 % of control
- T/C [1]: 91 % of control and 95 % of control
- T/C [3]: 87 % of control

Compound: C=CCC(NC(=O)CC)C(=O)O (configuration not stated)
- T/C [7]: 92 % of control
- T/C [8]: 92 % of control
- T/C (dose: 200.0 mg/kg/injection, schedule: Q01DX009 (ip), vehicle: saline): 103 % of control

Compound: Cn1c(=O)ccc2ccc(N(CCO)CCO)nc21
- T/C (dose: 50.0 mg/kg/injection, schedule: Q04DX003 (ip), vehicle: saline with Tween-80): 98 % of control
- T/C (dose: 100.0 mg/kg/injection, schedule: Q04DX003 (ip), vehicle: saline with Tween-80): 94 % of control
- T/C (dose: 200.0 mg/kg/injection, schedule: Q04DX003 (ip), vehicle: saline with Tween-80): 103 % of control

Compound: NC(N)=NS(=O)(=O)c1ccc(NCc2c3ccccc3nc3cc(Cl)ccc23)cc1
- T/C [9]: 170 % of control
- T/C [10]: 121 % of control
- T/C [11]: 116 % of control

Compound: CONc1ccn(C2OC(CO)C(O)C2O)c(=O)n1 (configuration not stated)
- T/C (dose: 12.5 mg/kg/injection, schedule: Q01DX009 (ip), vehicle: saline): 101 % of control and 104 % of control
- T/C (dose: 25.0 mg/kg/injection, schedule: Q01DX009 (ip), vehicle: saline): 112 % of control and 117 % of control
- T/C [7]: 99 % of control and 113 % of control
- T/C [8]: 112 % of control

Compound: CCOC(=C[P+](c1ccccc1)(c1ccccc1)c1ccccc1)OCC
- T/C (dose: 0.39 mg/kg/injection, schedule: Q01DX005 (ip), vehicle: water): 98 % of control and 103 % of control
- T/C (dose: 0.78 mg/kg/injection, schedule: Q01DX005 (ip), vehicle: water): 107 % of control and 96 % of control
- T/C (dose: 1.56 mg/kg/injection, schedule: Q01DX005 (ip), vehicle: water): 102 % of control and 110 % of control and 121 % of control
- T/C (dose: 3.12 mg/kg/injection, schedule: Q01DX005 (ip), vehicle: water): 113 % of control and 118 % of control and 124 % of control
- T/C (dose: 6.25 mg/kg/injection, schedule: Q01DX005 (ip), vehicle: water): 109 % of control

Compound: CC1(C)CC(O)(C(Cl)c2ccccc2)C(=O)c2ccccc21 (configuration not stated)
- T/C (dose: 25.0 mg/kg/injection, schedule: Q01DX009 (ip), vehicle: Klucel (hydroxypropylcellulose) (HPC)): 96 % of control
- T/C (dose: 50.0 mg/kg/injection, schedule: Q01DX009 (ip), vehicle: Klucel (hydroxypropylcellulose) (HPC)): 93 % of control
- T/C (dose: 100.0 mg/kg/injection, schedule: Q01DX009 (ip), vehicle: Klucel (hydroxypropylcellulose) (HPC)): 93 % of control
- T/C (dose: 200.0 mg/kg/injection, schedule: Q01DX009 (ip), vehicle: Klucel (hydroxypropylcellulose) (HPC)): 94 % of control
- T/C (dose: 400.0 mg/kg/injection, schedule: Q01DX009 (ip), vehicle: Klucel (hydroxypropylcellulose) (HPC)): 86 % of control

Compound: C=C(C)CC1=C(C)C(=O)C(C)=C(C)C1=O
- T/C (dose: 75.0 mg/kg/injection, schedule: Q04DX003 (ip), vehicle: Klucel (hydroxypropylcellulose) (HPC)): 110 % of control
- T/C (dose: 150.0 mg/kg/injection, schedule: Q04DX003 (ip), vehicle: Klucel (hydroxypropylcellulose) (HPC)): 105 % of control
- T/C (dose: 300.0 mg/kg/injection, schedule: Q04DX003 (ip), vehicle: Klucel (hydroxypropylcellulose) (HPC)): 122 % of control

Compound: CC(C)CC1N=C(N(C)N=O)OP1(=O)NNc1ncccn1 (configuration not stated)
- T/C (dose: 60.0 mg/kg/injection, schedule: Q01DX005 (ip), vehicle: saline): 97 % of control
- T/C (dose: 120.0 mg/kg/injection, schedule: Q01DX005 (ip), vehicle: saline): 102 % of control
- T/C (dose: 240.0 mg/kg/injection, schedule: Q01DX005 (ip), vehicle: saline): 99 % of control

Compound: N#CC(NCc1ccccc1)c1ccccc1 (configuration not stated)
- T/C [9]: 99 % of control
- T/C [10]: 100 % of control

Compound: COC(=O)C(CO)NC(=O)C(NC(=O)OCc1ccccc1)C(C)O (stereo not drawn) (Cbz-Thr-Ser-OMe; configuration not given here)
- T/C [12]: 118 % of control
- T/C [13]: 101 % of control
- T/C [14]: 108 % of control

Compound: CCOC(=O)/C(C#N)=C1/SC=C(N)N1c1ccccc1
- T/C [12]: 98 % of control
- T/C [13]: 94 % of control
- T/C [14]: 91 % of control

Compound: CCOC(=O)C(C)(Br)C(=O)OCC
- T/C [15]: 118 % of control
- T/C [4]: 109 % of control
- T/C [5]: 109 % of control

Compound: CC(C)C(N)S(=O)(=O)O (configuration not stated)
- T/C [4]: 115 % of control
- T/C [5]: 94 % of control
- T/C [6]: 105 % of control

Compound: CCC[CH2][Sn]1([CH2]CCC)[O]OC(c2ccccc2)[O]1 (configuration not stated)
- T/C (dose: 4.5 mg/kg/injection, schedule: Q01DX009 (ip), vehicle: other): 150 % of control
- T/C (dose: 625.0 micrograms/kg/injection, schedule: Q04DX003 (ip), vehicle: saline with Tween-80): 115 % of control
- T/C (dose: 1250.0 micrograms/kg/injection, schedule: Q04DX003 (ip), vehicle: saline with Tween-80): 120 % of control
- T/C (dose: 5000.0 micrograms/kg/injection, schedule: Q04DX003 (ip), vehicle: saline with Tween-80): 165 % of control

Compound: OCC12C=COC1OC2(c1ccccc1)c1ccccc1 (configuration not stated)
- T/C (dose: 15.0 mg/kg/injection, schedule: Q01DX005 (ip), vehicle: saline with Tween-80): 100 % of control
- T/C (dose: 30.0 mg/kg/injection, schedule: Q01DX005 (ip), vehicle: saline with Tween-80): 95 % of control
- T/C [9]: 89 % of control and 98 % of control

Compound: COC(=O)CC12CC3(C)CC(C)(C1)CC(CC(=O)OC)(C3)C2
- T/C [4]: 99 % of control
- T/C [5]: 99 % of control and 108 % of control
- T/C [6]: 103 % of control and 113 % of control

Compound: COc1cc(/C=C/[N+](=O)[O-])c(OC)cc1Br
- T/C [15]: 122 % of control

Compound: CSc1nc(Cl)c(Cl)c(C(F)(F)F)n1
- T/C [1]: 103 % of control

Compound: C=C1C[C@H](C2OC3OC(C)(C)OC3C2OCc2ccccc2)OC1=O (some centres not stated)
- T/C [1]: 97 % of control
- T/C [2]: 98 % of control
- T/C [3]: 100 % of control

Compound: CSCC[C@@H]1C(=O)N(C)[C@H](C(C)(C)C)N1C(=O)c1ccccc1
- T/C [9]: 100 % of control
- T/C [10]: 100 % of control
- T/C [11]: 97 % of control
